Assay results: patent US10705094B2, “TNF receptor signaling modulator assay” (UCB Biopharma SRL, priority 2015, dated 2020)

How the values were obtained:
[1] = target: T1, TNFα binding to the TNF receptor (TNFR-ECD) (Homo sapiens, UniProt P01375); assay: Meso Scale Discovery (MSD) assay of TNFα binding to plate-coated TNFR-ECD; conditions: MSD assay, TNF 2 ng/ml, 5% DMSO; read-out: EC50 (enhanced binding of TNFα to immobilised ECD-TNFR)
T1 construct: purchased R&D Systems
Experimental: 384 well uncoated plates (standard binding) Meso Scale Discovery plates (MSD) were coated overnight with the extracellular domain of TNFR (TNFR-ECD) (10 μl, 1 ug/mL in PBS). To ensure even distribution plates were centrifuged at 1000 rpm for 2 minutes. The plates were then sealed and stored at +4° C. overnight.
The wells of the plates were then washed three times in 50 μl phosphate buffered saline pH 6.5 (PB) with 0.05% Tween 20 (wash buffer), and then blocked with 50 μl 2% BSA. The plates were then incubated at room temperature on a shaker (600 rpm) for 2 hours. After this incubation plates were washed (3×50 μl wash buffer per well).
During the blocking incubation, compounds of formulae (1) and (2) were pre-incubated with TNF (R&D Systems) prior to addition to the pre-blocked and washed MSD plates. For a single point assay as shown in FIG. 3A the compounds were assayed at a final concentration of 100 μM (5% final v/v DMSO).
Pre-diluted compounds of formulae (1) and (2) were added at a ratio of 1:1 to 4 ng/mL TNF (final concentration 2 ng/ml), and then incubated at room temperature on a shaker 600 rpm for 1 hour.
10 μl of pre-incubated mixtures of compound of formulae (1) or (2) with TNFα were added to the prepared MSD plate and incubated at room temperature on a shaker for 1 hour.
The plates were then washed with wash buffer (3×50 μl per well). Sulfo-tagged anti-TNF polyclonal antibody was then added to each well and the plates incubated for a further 1.5 hours at room temperature on a shaker.
The plates were then washed (3×50 μl wash buffer per well), followed by the addition of 50 μl MSD Read buffer T plus surfactant (diluted 1 in 2 in H2O) and read on a SECTOR Imager 6000.
For single point assays percentage inhibition was calculated using a control sample without compound.
For EC50s determination results were calculated by standard means using a 4 parameter logistic model (sigmoidal dose response model).

[2] = tested on: hTNFα-induced neutrophil recruitment; assay: Neutrophil recruitment in mice, compound pre-mixed with hTNFα and injected i.p.; type: in vivo, Balb/c mice; conditions: for effect of compound alone on neutrophil recruitment: compound only mice, no TNFα; for neutrophil recruitment versus TNFα in the absence of the compound: sample 1, ratio compound:TNFα 0.1:1, i.p.; for neutrophil recruitment versus TNFα in the absence of the compound / inhibition of neutrophil recruitment: 2 h
Experimental: In separate studies, compounds of formula (1) and formula (2) were mixed with 20 μM solutions of TNFα dissolved in phosphate buffered saline (PBS) to a concentration of 2 μM, 20 μM and 200 μM. The ratio of each compound to TNFα was, therefore, 0.1:1 (sample 1), 1:1 (sample 2) and 10:1 (sample 3). […] This process separates protein bound compound and free compound. A control sample containing PBS only was processed in the same way to provide a vehicle control for the study. The concentration of eluted protein was determined using a Nanodrop (ND-1000). The TNFα:compound complexes were diluted in PBS to a concentration for injection of 0.03 μg/kg.
For the study, typically, each group contained 10 male Balb/c mice (Charles River) apart from an anti-human TNFα antibody positive control, which used a set of 5 mice.
Compound only mice were also included in the study to assess the effect of compound on neutrophil recruitment.
All mice were killed by cervical dislocation two hours post-injection of hTNFα (t=2 h) and the peritoneal cavity was lavaged with 3 mL of FACS buffer (500 mL PBS containing 2 g bovine serum albumin, 6 mL HEPES buffer and […]). Lavage fluid was aspirated and neutrophil numbers were assessed by staining cells with anti-Gr1 PE and anti-CD45 FITC by FACS as detailed below.
100 μL of lavage fluid from each sample was aliquoted into FACS tubes. A FACS cocktail was made up using anti-GR-1 PE (BD cat #553128 Lot #75542) at 1 in 39 dilution and anti-CD45 FITC (BD cat #553080 Lot #80807) at 1 in 19 dilution in FACS buffer. Fc block (BD Cat #553142 Lot #87810) was prepared 1 in 10 with FACS buffer and 10 μL added to each sample 5 minutes before adding the antibody cocktail. […] Samples were then left for 20 mins on ice. 1 mL of FACS Lyse solution (BD Cat #349202 Lot #29076, diluted 1:10 in dH2O) was added to each tube, mixed and left at room temperature for 5 minutes. 1 mL of FACS Buffer was then added to each tube and centrifuged at 400 g for 5 minutes. The FACS buffer was then carefully poured off and the tip of the tube dabbed on absorbent paper to leave the tube completely dry. Then […] of 1 in 10 Reference Bead solution (Sigma cat # P2477 Lot #116K1612) diluted in FACS buffer was added to each tube.
Samples were analysed using FACScalibur II and FloJo software.

TNFα = TNFα (Homo sapiens, UniProt P01375); assay: L929 murine fibrosarcoma cell-killing (neutralisation) assay; type: cell-based, mouse; parameters: host or cells: added to L929 murine fibrosarcoma cells (ECACC, 85011425); conditions: L929 cells; read-out: IC50 (inhibition of cell killing activity of human TNFα)
Chain of TNFα (P01375 77-233 limits assumed): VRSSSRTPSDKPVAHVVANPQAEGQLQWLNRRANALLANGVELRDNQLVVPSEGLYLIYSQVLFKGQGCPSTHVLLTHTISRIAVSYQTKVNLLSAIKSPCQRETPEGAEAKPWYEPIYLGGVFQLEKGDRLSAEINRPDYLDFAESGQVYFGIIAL
Experimental: The L929 neutralisation assays were carried out using the protocol disclosed in Baarsch M J J et al (Immunol Methods 1991; 140: 15-22) and Galloway C J et al J (Immunol Methods 1991; 140: 37-43).
Briefly, L929 cells (ECACC, 85011425) were cultured in culture medium consisting of RPMI 1640 (Gibco) containing 10% FCS (PAA), 2 mM glutamine (Gibco), 50 U/ml penicillin (Gibco) and 50 μg/ml streptomycin (Gibco). When they were subcultured, the cells were washed three times with 10 mL Dulbecco's phosphate-buffered saline without calcium and magnesium (Gibco) and 3 ml of trypsin-EDTA (Gibco) was then added for 2 minutes to remove the cells from the flask. Culture medium was added to neutralise the trypsin and the cells pipetted up and down to remove any clumps.
The L929 cells were split 1/2 or 1/3 the day before use and cultured for a further 24 hours. The flasks were then trypsinised as above and 2×10^4 cells in 100 μl were added per well of a 96 well flat-bottomed plate (Becton Dickinson). The plates were cultured for 24 hours before the assay was set up.
Serial dilutions were made from DMSO stocks of the compounds.
The assay medium was the same as culture medium but also contained 1 μg/ml actinomycin D (Sigma). The medium was flicked off the plates and the assay samples plus TNFα, standards and controls were added in 100 μl volumes in duplicate. Plates were incubated for a further 16 hours and then 10 μl per well of a 5 mg/ml methylthiazoletetrazolium (MTT; Sigma) solution in culture medium was added for a further 4 hours. The reaction was stopped by the addition of 100 μl of solubilisation buffer containing 20% sodium dodecyl sulphate (SDS, BDH) dissolved in 50% dimethyl formamide (DMF; BDH) and 50% deionised water.
After overnight incubation at 37° C. to allow the dye to dissolve, the plates were read on a Multiskan EX plate reader (Labsystem) at 570 nm with subtraction at 630 nm. Data were analysed using the Genesis software package.

T1 sequence (P01375 77-233 limits assumed): as above

SMILES	EC50 [1] [nM]	effect of compound alone on neutrophil recruitment [2]	neutrophil recruitment versus TNFα in the absence of the compound [2]	IC50 (TNFα) [nM]	inhibition of neutrophil recruitment ([2]; sample 2, ratio compound:TNFα 1:1, i.p.) [%]	inhibition of neutrophil recruitment ([2]; sample 3, ratio compound:TNFα 10:1, i.p.) [%]
Cc1ccc(C)c(Cn2c(C(O)c3ccncc3)nc3ccc(-c4cnn(C)c4)cc32)c1 (stereo not shown) [Compound (2), [1-(2,5-Dimethylbenzyl)-6-(1-methyl-1H-pyrazol-4-yl)-1H-benzimidazol-2-yl](pyridin-4-yl)methanol]	3700	negligible effect	not significantly different	125		
Cc1ccc(C)c(Cn2c(C(O)c3ccncc3)nc3ccccc32)c1 (stereo not shown) [Compound (1), [1-(2,5-Dimethylbenzyl)-1H-benzimidazol-2-yl](pyridin-4-yl)methanol]	4600	negligible effect	not significantly different	306	86	85
